This is an account of results in patent publication US6218405A, “Heteroarylsulfonamide derivatives and pharmaceutical compositions containing them” (KNOLL Aktiengesellschaft, priority 1996, dated 2001).

The target in one experiment is T1, 5-HT1A receptors (Rattus norvegicus, UniProt P19327).
T1 construct: Hippocampal tissue from the brains of male Charles River CD rats; from tissue; host or cells: hippocampal tissue from brains of male Charles River CD rats
T1 sequence (P19327 1-422): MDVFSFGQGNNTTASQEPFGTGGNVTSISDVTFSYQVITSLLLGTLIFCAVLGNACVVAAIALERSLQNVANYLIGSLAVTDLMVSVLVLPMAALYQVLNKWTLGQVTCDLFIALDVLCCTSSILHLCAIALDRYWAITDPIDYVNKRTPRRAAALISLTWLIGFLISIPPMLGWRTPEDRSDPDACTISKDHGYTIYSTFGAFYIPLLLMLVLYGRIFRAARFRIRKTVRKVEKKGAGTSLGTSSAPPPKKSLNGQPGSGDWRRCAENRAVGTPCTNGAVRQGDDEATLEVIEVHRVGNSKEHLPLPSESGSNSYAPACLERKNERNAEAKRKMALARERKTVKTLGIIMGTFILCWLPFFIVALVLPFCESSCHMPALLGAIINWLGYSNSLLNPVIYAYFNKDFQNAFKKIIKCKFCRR
Briefly: 5-HT1A receptor binding: displacement of [3H]8-hydroxy-2-(dipropylamino)tetralin in rat hippocampal tissue. Also noted: species or system male Charles River CD rats. The settings on record: 0.5 h, 10^-6 M, [3H]-OH-DPAT 2 nM, 25° C., 30 minutes, read-out: % displacement at 10^-6 M, 5-HT1A (column headed Ki (nM) value for 5-HT1A). How it is done:
Hippocampal tissue from the brains of male Charles River CD rats weighing between 150-250 g were homogenised in ice-cold 50 mM Tris-HCl buffer (pH 7.7) when measured at 25° C., 1:40 w/v) and centrifuged at 30,000 g at 4° C. for 10 minutes. The pellet was rehomogenised in the same buffer, incubated at 37° C. for 10 minutes and centrifuged at 30,000 g at 4° C. for 10 minutes. The final pellet was resuspended in 50 mM Tris-HCl buffer (pH 7.7) containing 4 mM CaCl2, 0.1% L-ascorbic acid and 10 μM pargyline hydrochloride (equivalent to 6.25 mg wet weight of tissue/ml) and used immediately in the binding assay. Aliquots (400 μl; equivalent to 2.5 mg wet weight of tissue/tube) of this suspension were added to tubes containing the ligand (50 μl; 2 nM) and distilled water (50 μl; total binding) or 5-HT (50 μl; […]; non-specific binding) or test compound (50 μl; at a single concentration of 10^-6 M or at 10 concentrations ranging from 10^-11 -10^-3 M). The ligand was [^3 H]8-hydroxy-2-(dipropylamino)tetralin ([^3 H]-OH-DPAT) and the mixture was incubated at 25° C. for 30 minutes before the incubation was terminated by rapid filtration.
The filters were washed with ice-cold Tris-HCl buffer and dried. The filters were punched out into vials, scintillation fluid added and radioactivity determined by liquid scintillation counting. The percentage displacement of specific binding of the tritiated ligand was calculated for the single concentration (10^-6 M) of test compound. Displacement curves were then produced for those compounds which displaced ≥50% of specific binding of the tritiated ligand at 10^-6 M using a range of concentrations of the compound. The concentration which gave 50% inhibition of specific binding (IC50) was obtained from the curve. The inhibition coefficient Ki was then calculated using the formula [formula]
(§1) in which [ligand] is the concentration of the tritiated ligand used and KD is the equilibrium dissociation constant for the ligand.
(§2) The % figures in Table 1 are for % displacement at 10^-6 M.

The subject of experiment [1] is D2-like dopamine receptors. The experiment can be described thus: D2-like dopamine receptor binding: displacement of tritiated (S)-sulpiride in rat striatal tissue. Also noted: species or system male Charles River CD rats. As to conditions: tritiated (S)-sulpiride 1 nM, 4° C., 40 minutes. The procedure:
Striatal tissue from the brains of male Charles River CD rats weighing between 140-250 g were homogenised in ice-cold 50 mM Tris-HCl buffer (pH 7.7 when measured at 25° C.) and centrifuged at 40,000 g for 10 minutes. The pellet was resuspended in Tris salts buffer (50 mM Tris-HCl buffer containing 120 mM NaCl, 5 mM KCl, 2 mM CaCl2 and 1 mM MgCl2 with the addition of 6 mM ascorbic acid; pH 7.7 when measured at 25° C.), and again centrifuged at 40,000 g for 10 minutes. The final pellet was stored at -80° C. Before each test the pellet was resuspended in Tris salts buffer (equivalent to 2 mg wet weight of tissue/ml). Aliquots (720 μl; equivalent to 1.44 mg wet weight of tissue/tube) of this suspension were then added to tubes containing the ligand (40 μl; 1 nM) and Tris salts buffer (40 μl; total binding) or spiroperidol (40 μl; 10 nM; non-specific binding) or test compound (40 μl; at a single concentration of 10^-6 M or at 6 concentrations ranging from 10^-11 -10^-4 M). The ligand was tritiated (S)-sulpiride and the mixture was incubated at 4° C. for 40 minutes before the incubation was terminated by rapid filtration.
The filters were washed with ice-cold Tris-HCl buffer and dried. The filters were punched out in to vials, scintillation fluid added and were left for about 20 hours before being counted by scintillation spectrophotometry. The percentage displacement of specific binding of the tritiated ligand was calculated for the single concentration (10^-6 M) of test compound. Displacement curves were then produced over a range of concentrations for those compounds which displaced ≥50% of specific binding of the tritiated ligand at 10^-6 M. The concentration which gave a 50% inhibition of specific binding (IC50) was obtained from the curve. The inhibition coefficient Ki was then calculated using the formula [formula]
as §1, §2

Take `O=S(=O)(NCC1CCN(C[C@H]2COc3ccc4[nH]ccc4c3O2)CC1)c1ccccn1` [Example 2, (S)-N-{[1-(2,3-dihydro-7H-1,4-dioxino[2,3-e]indol-2-ylmethyl)piperid-4-yl]methyl}pyridine-2-sulphonamide]: the inhibition at 1 µM at 5-HT1A receptors turned out to be 99%. In addition, the “% displacement at 10^-6 M, D2-like (column headed Ki (nM) value for D2-like)” value (shortened to “% displacement at 10^-6 M, D2-like”) in experiment [1] is reported as 105%.

Regarding `O=S(=O)(NCC1CCN(C[C@H]2COc3ccc4scc(Cl)c4c3O2)CC1)c1ccccn1` [Example 1, (S)-N{[1-(9-chloro-2,3-dihydrothieno[3,2-f][1,4]benzodioxin-2-ylmethyl)piperid-4-yl]methyl}pyridine-2-sulphonamide], the inhibition at 1 µM at 5-HT1A receptors came to 98%. Besides, in experiment [1], the “% displacement at 10^-6 M, D2-like” value came out at 106%.

Turning to `CC(=O)Nc1ccc(S(=O)(=O)NCC2CCN(C[C@H]3COc4ccc5[nH]ccc5c4O3)CC2)cc1` [Example 3, (S)-4-acetamido-N-{[1-(2,3-dihydro-7H-1,4-dioxino[2,3-e]indol-2-ylmethyl)piperid-4-yl]methyl}benzenesulphonamide], the inhibition at 1 µM at 5-HT1A receptors was determined as 97%. For the same compound, the “% displacement at 10^-6 M, D2-like” value in experiment [1] was determined as 105%.
